From paper PMC6272893, “NO-Releasing Enmein-Type Diterpenoid Derivatives with Selective Antiproliferative Activity and Effects on Apoptosis-Related Proteins” (Molecules, 2016)

Assays:
[1] = tested on: CaEs-17 cells; assay: MTT antiproliferative assay, CaEs-17; format: cell-based, human
Description: [The source words this procedure for another cell line and reports this cell line under the same test.] (§1) Cytotoxicity assay in vitro was employed by the MTT assay following the methodology described previously, which was performed in flat-bottomed 96-well plates. In short, exponentially growing MGC-803 cells at the log phase were added to each well at a density of 5 × 10^3 per well, then treated with serial dilutions of the compounds in three replicates at various concentrations (0.039–40 µg/mL). After 72 h, 20 µL of MTT solution (5 mg/mL) per well was added to each cultured medium. Then, DMSO was added to each well (150 µL/well). After 10 min at room temperature, the absorbance (OD) was read on a microplate reader at the wavelength of 490 nm (BIO-RAD Instruments Inc. 550, Hercules, CA, USA). In these experiments, taxol was used as the positive reference with the concentration of 10 µg/mL.

[2] = tested on: K562 cells; assay: MTT antiproliferative assay, K562; format: cell-based, human
Description: [The source words this procedure for another cell line and reports this cell line under the same test.] as §1

[3] = tested on: apoptosis-related proteins in Bel-7402 cells; assay: Western blot of apoptosis-related proteins; format: cell-based, human; conditions: 10f 1.0, 1.5 and 2.0 μM, 48 h, concentration-dependent
Description: Bel-7402 cells were incubated in triplicate with different doses (1.0, 1.5 and 2.0 μM) of 10f for 48 h. After the protein concentrations were determined, individual cell lysates were separated by sodium dodecyl sulfate polyacrylamide gel electrophoresis (10% gel, SDS-PAGE) and transferred onto nitrocellulose membranes. After being blocked with 5% fat-free milk, the target proteins in the membranes were probed with monoclonal anti-Bax (KGA714), anti-Bcl2 (KGA715), anti-caspase 3 (KGA717), anti-caspase 9 (KGA720), anti-cyto C (KGA723), and anti-β-actin antibodies (KGA731, KeyGEN Biotech, Nanjing, China), respectively. The relative levels of each signaling event to control β-actin were determined by densimetric scanning.
Figure 7 Western blotting of 10f on the expression of apoptosis-related proteins in Bel-7402 cells. 1: negative control; 2: 2.0 μM; 3: 1.5 μM; 4: 1.0 μM.

[4] = tested on: L-02 normal liver cells; assay: MTT antiproliferative assay, L-02; format: cell-based
Description: [The source words this procedure for another cell line and reports this cell line under the same test.] as §1

[5] = tested on: MGC-803 cells; assay: MTT antiproliferative assay, MGC-803; format: cell-based, human
Description: as §1

[6] = tested on: Bel-7402 cells; assay: MTT antiproliferative assay, Bel-7402; format: cell-based, human
Description: [The source words this procedure for another cell line and reports this cell line under the same test.] as §1

[7] = tested on: Bel-7402 cells; assay: Cell cycle study by PI flow cytometry; format: cell-based, human; conditions: for G2 phase cells: control 20.72%; for cells at the S phase: control 34.65%
Description: Progression through the cell cycle was assessed by flow cytometry DNA determination with PI. Bel-7402 cells were plated in 6-well plates (5.0 × 10^3 cells/well) and incubated at 37 °C for 24 h. Exponentially growing cells were then incubated with tested compound at a certain concentration in triplicate. Untreated cells (control) or cells treated with the solvent (DMSO) of the compound were included. After 48 h treatment, cells were centrifuged and fixed in 70% ethanol at 4 °C overnight and subsequently resuspended in PBS containing 100 μL RNase A and 400 μL PI. Cellular DNA content, for cell cycle distribution analysis, was measured using a flow cytometer (FACS Calibur Becton-Dickinson, Franklin Lake, NJ, USA).
Figure 4 Influence of the cell cycle arrest of S phase by 10f in Bel-7402 cells: Bel-7402 cells were incubated with the indicated concentrations of 10f for 24 h and the cells were stained with propidium iodide (PI). Cellular DNA content, for cell cycle distribution analysis, was measured using a flow cytometer. The diagrams show the distribution of the cells according to their DNA content. The inserts give the percentages of cells in different cell cycle phases. TEXT PRINTED IN THE PICTURE: Control group: G1: 44.64%; S: 34.65%; G2: 20.72% | no label printed: G1: 42.41% (1 μM); S: 40.27% (1 μM); G2: 17.32% (1 μM); G1: 43.10% (1.5 μM); S: 48.11% (1.5 μM); G2: 8.79% (1.5 μM); G1: 40.63% (2 μM); S: 53.34% (2 μM); G2: 6.02% (2 μM) DOUBTS OF THE COPYIST ABOUT THIS PICTURE: The picture prints no label for the treated substance, only the concentrations 1 μM, 1.5 μM and 2 μM, so the substance is left blank and the concentrations are given as conditions. / Control group is an untreated reference, not a substance. It is listed because the picture prints its values under that label.

[8] = tested on: Bel-7402 cells; assay: Mitochondrial membrane potential assay (JC-1); format: cell-based, human; conditions: 48 h, control 3.28%
Description: […] The percentage of cells with healthy or collapsed mitochondrial membrane potentials was monitored by flow cytometry analysis.
Figure 6 Effect of 10f on the mitochondrial membrane potentials of Bel-7402 cells: Bel-7402 cells were incubated with the indicated concentrations of 10f for 48 h prior to staining with JC-1. […] In each plot the first value is in the upper right quadrant and the second in the lower right quadrant.

[9] = tested on: Bel-7402 cells; assay: Annexin V-FITC/PI apoptosis assay; format: cell-based, human; conditions: 24 h, control 8.27%
Description: The Bel-7402 cells were seeded in 6-well plates to grow overnight, and then treated with or without 10f at indicated concentrations in triplicate for 24 h. Cells were then washed twice in PBS and resuspended in annexin V binding buffer. Annexin V-FITC was then added and the mixture was incubated for 15 min under dark conditions at 25 °C. PI was added just prior to acquisition. Apoptosis was analyzed using annexin V and PI double-staining by flow cytometry according to the manufacturer’s instructions in order to detect apoptotic cells.
Figure 5 Apoptosis in Bel-7402 cells by treatment with 10f: Bel-7402 cells were incubated with different concentrations of 10f for 24 h and the cells were stained with annexin V-FITC and PI, followed by flow cytometry analysis. TEXT PRINTED IN THE PICTURE: Control: 2.67%; 2.37%; 89.06%; 5.90% | no label printed: 2.07% (1.0 μM); 4.15% (1.0 μM); 74.53% (1.0 μM); 19.26% (1.0 μM); 5.69% (1.5 μM); 15.20% (1.5 μM); 55.99% (1.5 μM); 23.12% (1.5 μM); 3.33% (2.0 μM); 26.65% (2.0 μM); 37.87% (2.0 μM); 32.15% (2.0 μM) DOUBTS OF THE COPYIST ABOUT THIS PICTURE: The picture prints no compound label for the treated plots, only the concentrations 1.0 μM, 1.5 μM and 2.0 μM, so the substance is left empty. / The picture prints no measure or quadrant name for the percentages. Each plot's values are given in the order upper left, upper right, lower left, lower right.

Q: Which IC50 ([1]; Homo sapiens, CaEs17, MTT, 72 h, mean ± S.D. of three experiments) does the source give for `C=C1C(=O)C23C(=O)OC4CCC(C)(C)C5C(=O)OCC45C2CCC1C3OC(=O)c1ccccc1C(=O)OCCCOc1no[n+]([O-])c1S(=O)(=O)c1ccccc1` (stereo not shown) [Compound 10f] here?
A: 3770 ± 300 nM

Q: And the “fold stronger than 1, CaEs-17” value ([1]; IC50 compared with 1)?
A: 1.9 fold

Q: What about the “fold stronger than 9, CaEs-17” value ([1]; IC50 compared with 9) of the same compound?
A: 5.3 fold

Q: And the IC50 ([2]; Homo sapiens, K562, MTT, 72 h, mean ± S.D. of three experiments)?
A: 1730 ± 40 nM

Q: And the “fold stronger than 1, K562” value ([2]; IC50 compared with 1)?
A: 1.8 fold

Q: And the “anti-apoptotic Bcl-2 expression” value [3]?
A: downregulation

Q: And the “expression of proapoptotic caspase-3, -8, -9, Bax, FAS, and cytochrome c” value [3]?
A: upregulation

Q: And the IC50 ([4]; MTT, 72 h, mean ± S.D. of three experiments, read-out: antiproliferative activity IC50, L-02)?
A: 29900 ± 1400 nM

Q: What about the “SI (selectivity index)” value ([4]; selectivity between tumor and normal liver cells) of the same compound?
A: 36.9

Q: What about the melting point of the same compound?
A: 151 to 154 °C

Q: And the IC50 ([5]; Homo sapiens, MGC-803, MTT, 72 h, mean ± S.D. of three experiments)?
A: 1180 ± 100 nM

Q: And the “fold stronger than 1, MGC-803” value ([5]; IC50 compared with 1)?
A: 3.8 fold

Q: What about the “fold stronger than 9, MGC-803” value ([5]; IC50 compared with 9) of the same compound?
A: 3.9 fold

Q: And the IC50 ([6]; Homo sapiens, Bel-7402, MTT, 72 h, mean ± S.D. of three experiments)?
A: 810 ± 60 nM

Q: What about the “fold stronger than 1, Bel-7402” value ([6]; IC50 compared with 1) of the same compound?
A: 8.2 fold

Q: And the “fold stronger than 9, Bel-7402” value ([6]; IC50 compared with 9)?
A: 18.7 fold

Q: What about the G2 phase cells ([7]; 10f 1.0 μM) of the same compound?
A: 17.32%

Q: What about the “cells at the S phase” value ([7]; 10f 1.0 μM) of the same compound?
A: 40.27%

Q: And the G2 phase cells ([7]; 10f 1.5 μM)?
A: 8.79%

Q: And the “cells at the S phase” value ([7]; 10f 1.5 μM)?
A: 48.11%

Q: What about the G2 phase cells ([7]; 10f 2.0 μM) of the same compound?
A: 6.02%

Q: What about the “cells at the S phase” value ([7]; 10f 2.0 μM) of the same compound?
A: 53.34%

Q: And the “cells with collapsed mitochondrial membrane potentials” value ([8]; 10f 0.5 μM)?
A: 17.76%

Q: What about the “cells with collapsed mitochondrial membrane potentials” value ([8]; 10f 1.5 μM) of the same compound?
A: 33.44%

Q: What about the “cells with collapsed mitochondrial membrane potentials” value ([8]; 10f 2.0 μM) of the same compound?
A: 47.63%

Q: What about the “apoptotic cell rates (early and late)” value ([9]; 10f 1.0 μM) of the same compound?
A: 23.41%

Q: What about the “apoptotic cell rates (early and late)” value ([9]; 10f 1.5 μM) of the same compound?
A: 38.32%

Q: And the “apoptotic cell rates (early and late)” value ([9]; 10f 2.0 μM)?
A: 58.80%
